{"source": "patent US7582649B2", "about": "“Hydroxy alkyl substituted 1,3,8-triazaspiro[4.5]decan-4-one derivatives useful for the treatment of ORL-1 receptor mediated disorders” (Janssen Pharmaceutica, NV, priority 2002, dated 2009)", "key": {"[1]": {"test_system": "Long-Evans Hooded rats", "conditions": "male, rat, in vivo, po"}, "[2]": {"test_system": "Long-Evans Hooded rats", "experiment": "Plasma stress hormone levels (ACTH, corticosterone, glucose) after SIH", "type": "in vivo, rat", "conditions": "p.o.", "method": "(§1) Male Long-Evans Hooded rats weighing 180 to 200 grams at the time of purchase were obtained from Charles River Laboratories (Raleigh, N.C.). Upon arrival, the animals were group housed four per cage in quarantine for 5 days in wire-mesh cages at an ambient temperature of 21 to 23° C. with an automated 12/12 hour light/dark cycle and ad libitum access to water and a commercial rodent chow. The rats were then transferred to a general housing room for a one-week acclimation with housing and environmental conditions, and 12/12 hour light/dark cycle conditions. Animals were fasted overnight (18 hours) prior to experiment.\nOn the day of experiment, group-housed (4/group) Long-Evans Hooded rats were divided into various treatment groups (N=8 to 32) and test compound at 0.03-3.0 mg/kg or vehicle was administered orally (p.o.) by gavage in a dose volume equivalent to 5 mL/kg. One hour after dosing, baseline rectal temperatures were recorded for each rat. Rats were then immediately isolated in shoebox cages with ALPHA-DRY bedding. Rectal temperatures were then recorded at 15 min, 30 min, and 45 min after isolation (i.e., 1 hr 15 min, 1 hr 30 min, and 1 hr 45 minutes after test compound or vehicle administration). All experiments were conducted during the light cycle. […]"}, "[3]": {"target": "mu opioid receptor (Homo sapiens, UniProt P35372)", "sequence (P35372 whole entry)": "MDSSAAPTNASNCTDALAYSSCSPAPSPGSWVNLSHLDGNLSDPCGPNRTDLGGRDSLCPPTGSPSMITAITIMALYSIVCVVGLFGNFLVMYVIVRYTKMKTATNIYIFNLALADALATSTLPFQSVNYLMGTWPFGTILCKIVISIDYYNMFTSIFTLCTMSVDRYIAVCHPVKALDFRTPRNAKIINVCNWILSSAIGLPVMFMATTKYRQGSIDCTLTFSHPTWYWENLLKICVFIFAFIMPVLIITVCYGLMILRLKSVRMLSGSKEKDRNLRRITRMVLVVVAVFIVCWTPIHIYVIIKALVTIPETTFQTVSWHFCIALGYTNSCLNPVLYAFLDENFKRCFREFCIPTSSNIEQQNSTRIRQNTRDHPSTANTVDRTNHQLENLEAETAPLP", "experiment": "Filtration binding assay: mu opioid receptor"}, "[4]": {"target": "kappa opioid receptor (Homo sapiens, UniProt P41145)", "sequence (P41145 whole entry)": "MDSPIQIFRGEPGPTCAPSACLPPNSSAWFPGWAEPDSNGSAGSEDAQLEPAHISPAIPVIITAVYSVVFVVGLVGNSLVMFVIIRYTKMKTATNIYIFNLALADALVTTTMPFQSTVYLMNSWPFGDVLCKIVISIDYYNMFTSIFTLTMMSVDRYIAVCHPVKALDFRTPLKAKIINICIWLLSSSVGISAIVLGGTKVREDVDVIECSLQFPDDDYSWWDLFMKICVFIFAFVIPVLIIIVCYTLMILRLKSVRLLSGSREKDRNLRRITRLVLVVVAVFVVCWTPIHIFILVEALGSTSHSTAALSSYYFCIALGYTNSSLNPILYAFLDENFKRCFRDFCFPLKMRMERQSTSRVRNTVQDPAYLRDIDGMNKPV", "experiment": "Filtration binding assay: kappa opioid receptor"}, "[5]": {"test_system": "Long-Evans Hooded rats", "conditions": "rat, in vivo, po; for Total Entries (EPM), % Change / Total Entries (EPM), Mean: male, Long-Evans Hooded"}, "[6]": {"test_system": "Long-Evans Hooded rats", "experiment": "Stress induced hyperthermia (SIH) in vivo assay, rectal temperature", "parameters": "species or system rat", "method": "as §1\n[…] One hour after dosing, baseline rectal temperatures were recorded for each rat. Rats were then immediately isolated in shoebox cages with ALPHA-DRY bedding. Rectal temperatures were then recorded at 15 min, 30 min, and 45 min after isolation (i.e., 1 hr 15 min, 1 hr 30 min, and 1 hr 45 minutes after test compound or vehicle administration). All experiments were conducted during the light cycle. After completion of the behavioral portion of the study, each animal was killed via decapitation using a guillotine and trunk blood was collected in 5 mL vacutainer tube containing EDTA and placed on ice. The samples were then centrifuged at 3800 RPM for 10 minutes and plasma was removed and placed on dry ice in an Eppendorff sample tube. Plasma samples were stored at −80° C. and later used for determining ACTH, corticosterone, and glucose levels. Plasma samples were outsourced to Anilytics, Inc. for determination of plasma levels of ACTH, coricosterone, and glucose. A Mann-Whitney U t-test (one-tailed) was used for statistical analysis of behavioral data and an unpaired t-test (one-tailed) was used for analysis of plasma ACTH, corticosterone, and glucose levels.\nCompound #438 was suspended in an aqueous vehicle comprised of 0.5% (w/v) methylcellulose (15 centipoises) solution."}}, "note": "“And” between values parts separate entries of the source, which are not always exact repeats. Equal entries are not always repeated. Where two headings read alike, the source gives them in different places."}
{"compound": "Cc1cccc2cccc(CN3CCC4(CC3)C(=O)N(C[C@H](O)CN)CN4c3ccc(F)cc3)c12", "note": "[Compound #438, 3-(3-Amino-2-(R)-hydroxy-propyl)-1-(4-fluoro-phenyl)-8-(8-methyl-naphthalen-1-ylmethyl)-1,3,8-triaza-spiro[4.5]decan-4-one]", "values": [{"measurement": "Horizontal Activity (SMA), % Change", "setting": "[1]; 0.03 mg/kg", "value": 9.9, "unit": "%"}, {"measurement": "Horizontal Activity (SMA), Mean", "setting": "[1]; 0.03 mg/kg", "value": 3565}, {"measurement": "Vertical Movement (SMA), % Change", "setting": "[1]; 0.03 mg/kg", "value": 12.5, "unit": "%"}, {"measurement": "Vertical Movement (SMA), Mean", "setting": "[1]; 0.03 mg/kg", "value": 54.8}, {"measurement": "Horizontal Activity (SMA), % Change", "setting": "[1]; 10 mg/kg", "value": "−4.0", "unit": "%"}, {"measurement": "Horizontal Activity (SMA), Mean", "setting": "[1]; 10 mg/kg", "value": 3115}, {"measurement": "Vertical Movement (SMA), % Change", "setting": "[1]; 10 mg/kg", "value": 11.9, "unit": "%"}, {"measurement": "Vertical Movement (SMA), Mean", "setting": "[1]; 10 mg/kg", "value": 54.5}, {"measurement": "Horizontal Activity (SMA), % Change", "setting": "[1]; 30 mg/kg", "value": "−15.8", "unit": "%"}, {"measurement": "Horizontal Activity (SMA), Mean", "setting": "[1]; 30 mg/kg", "value": 2730}, {"measurement": "Vertical Movement (SMA), % Change", "setting": "[1]; 30 mg/kg", "value": "−7.0", "unit": "%"}, {"measurement": "Vertical Movement (SMA), Mean", "setting": "[1]; 30 mg/kg", "value": 45.3}, {"measurement": "changes in the plasma levels of corticosterone", "setting": "[2]", "value": "not statistically significant"}, {"measurement": "reduction in plasma ACTH levels", "setting": "[2]; 0.3 mg/kg, P=0.0170", "value": 25, "unit": "%"}, {"measurement": "IC50", "setting": "[3]", "value": "> 10", "unit": "µM"}, {"measurement": "IC50", "setting": "[4]", "value": "> 10", "unit": "µM"}, {"measurement": "Total Entries (EPM), % Change", "setting": "[5]; 0.03 mg/kg", "value": 1.0, "unit": "%"}, {"measurement": "Total Entries (EPM), Mean", "setting": "[5]; 0.03 mg/kg", "value": 102.0}, {"measurement": "Total Entries (EPM), % Change", "setting": "[5]; 10 mg/kg", "value": "−6.4", "unit": "%"}, {"measurement": "Total Entries (EPM), Mean", "setting": "[5]; 10 mg/kg", "value": 94.5}, {"measurement": "Total Entries (EPM), % Change", "setting": "[5]; 30 mg/kg", "value": "−14.6", "unit": "%"}, {"measurement": "Total Entries (EPM), Mean", "setting": "[5]; 30 mg/kg", "value": 86.3}, {"measurement": "% Open Arm Entries (EPM), % Change", "setting": "[5]; 0.03 mg/kg", "value": "−11.1", "unit": "%"}, {"measurement": "% Open Arm Entries (EPM), Mean", "setting": "[5]; 0.03 mg/kg", "value": 5.14, "unit": "%"}, {"measurement": "% Open Arm Time (EPM), % Change", "setting": "[5]; 0.03 mg/kg", "value": "−18.8", "unit": "%"}, {"measurement": "% Open Arm Time (EPM), Mean", "setting": "[5]; 0.03 mg/kg", "value": 6.67, "unit": "%"}, {"measurement": "% Open Arm Entries (EPM), % Change", "setting": "[5]; 0.1 mg/kg", "value": "34.4% and 40.4%"}, {"measurement": "% Open Arm Entries (EPM), Mean", "setting": "[5]; 0.1 mg/kg", "value": "7.77% and 9.17%"}, {"measurement": "% Open Arm Time (EPM), Mean", "setting": "[5]; 0.1 mg/kg", "value": "12.1% and 17.2%"}, {"measurement": "% Open Arm Entries (EPM), % Change", "setting": "[5]; 0.3 mg/kg", "value": "54.8% and 80.7%"}, {"measurement": "% Open Arm Entries (EPM), Mean", "setting": "[5]; 0.3 mg/kg", "value": "8.95% and 11.8%"}, {"measurement": "% Open Arm Time (EPM), Mean", "setting": "[5]; 0.3 mg/kg", "value": "13.8% and 21.8%"}, {"measurement": "% Open Arm Entries (EPM), % Change", "setting": "[5]; 1 mg/kg", "value": "72.1% and 46.6%"}, {"measurement": "% Open Arm Entries (EPM), Mean", "setting": "[5]; 1 mg/kg", "value": "9.95% and 9.57%"}, {"measurement": "% Open Arm Time (EPM), % Change", "setting": "[5]; 1 mg/kg", "value": "80.3% and 89.7%"}, {"measurement": "% Open Arm Time (EPM), Mean", "setting": "[5]; 1 mg/kg", "value": "14.8% and 15.1%"}, {"measurement": "% Open Arm Entries (EPM), % Change", "setting": "[5]; 3 mg/kg", "value": "44.3% and 37.8%"}, {"measurement": "% Open Arm Entries (EPM), Mean", "setting": "[5]; 3 mg/kg", "value": "8.34% and 9.0%"}, {"measurement": "% Open Arm Time (EPM), Mean", "setting": "[5]; 3 mg/kg", "value": "12.4% and 16.9%"}, {"measurement": "% Open Arm Entries (EPM), % Change", "setting": "[5]; 10 mg/kg", "value": 11.1, "unit": "%"}, {"measurement": "% Open Arm Entries (EPM), Mean", "setting": "[5]; 10 mg/kg", "value": 6.4, "unit": "%"}, {"measurement": "% Open Arm Time (EPM), % Change", "setting": "[5]; 10 mg/kg", "value": 0.9, "unit": "%"}, {"measurement": "% Open Arm Time (EPM), Mean", "setting": "[5]; 10 mg/kg", "value": 8.14, "unit": "%"}, {"measurement": "% Open Arm Entries (EPM), % Change", "setting": "[5]; 30 mg/kg", "value": 15.1, "unit": "%"}, {"measurement": "% Open Arm Entries (EPM), Mean", "setting": "[5]; 30 mg/kg", "value": 6.65, "unit": "%"}, {"measurement": "% Open Arm Time (EPM), % Change", "setting": "[5]; 30 mg/kg", "value": "−60.9", "unit": "%"}, {"measurement": "% Open Arm Time (EPM), Mean", "setting": "[5]; 30 mg/kg", "value": 3.21, "unit": "%"}, {"measurement": "Rectal Temp., Mean", "setting": "[6]; 0.03 mg/kg p.o., 0 (Basal), 1 hr after dosing", "value": 37.5, "unit": "°C"}, {"measurement": "Rectal Temp., Mean", "setting": "[6]; 0.03 mg/kg p.o., 15 min after isolation", "value": 38.7, "unit": "°C"}, {"measurement": "Rectal Temp., Mean", "setting": "[6]; 0.03 mg/kg p.o., 30 min after isolation", "value": 38.6, "unit": "°C"}, {"measurement": "Rectal Temp., Mean", "setting": "[6]; 0.03 mg/kg p.o., 45 min after isolation", "value": 38.4, "unit": "°C"}, {"measurement": "Rectal Temp., Mean", "setting": "[6]; 0.1 mg/kg p.o., 0 (Basal), 1 hr after dosing", "value": 37.2, "unit": "°C"}, {"measurement": "Rectal Temp., Mean", "setting": "[6]; 0.1 mg/kg p.o., 15 min after isolation", "value": 38.4, "unit": "°C"}, {"measurement": "Rectal Temp., Mean", "setting": "[6]; 0.1 mg/kg p.o., 30 min after isolation", "value": 38.5, "unit": "°C"}, {"measurement": "Rectal Temp., Mean", "setting": "[6]; 0.1 mg/kg p.o., 45 min after isolation", "value": 38.5, "unit": "°C"}, {"measurement": "Rectal Temp., Mean", "setting": "[6]; 0.3 mg/kg p.o., 0 (Basal), 1 hr after dosing", "value": 37.4, "unit": "°C"}, {"measurement": "Rectal Temp., Mean", "setting": "[6]; 0.3 mg/kg p.o., 15 min after isolation", "value": 38.4, "unit": "°C"}, {"measurement": "Rectal Temp., Mean", "setting": "[6]; 0.3 mg/kg p.o., 30 min after isolation", "value": 38.5, "unit": "°C"}, {"measurement": "Rectal Temp., Mean", "setting": "[6]; 0.3 mg/kg p.o., 45 min after isolation", "value": 38.3, "unit": "°C"}, {"measurement": "Rectal Temp., Mean", "setting": "[6]; 1.0 mg/kg p.o., 0 (Basal), 1 hr after dosing", "value": 37.1, "unit": "°C"}, {"measurement": "Rectal Temp., Mean", "setting": "[6]; 1.0 mg/kg p.o., 15 min after isolation", "value": 38.4, "unit": "°C"}, {"measurement": "Rectal Temp., Mean", "setting": "[6]; 1.0 mg/kg p.o., 30 min after isolation", "value": 38.5, "unit": "°C"}, {"measurement": "Rectal Temp., Mean", "setting": "[6]; 1.0 mg/kg p.o., 45 min after isolation", "value": 38.2, "unit": "°C"}, {"measurement": "Rectal Temp., Mean", "setting": "[6]; 3.0 mg/kg p.o., 0 (Basal), 1 hr after dosing", "value": 37.0, "unit": "°C"}, {"measurement": "Rectal Temp., Mean", "setting": "[6]; 3.0 mg/kg p.o., 15 min after isolation", "value": 38.2, "unit": "°C"}, {"measurement": "Rectal Temp., Mean", "setting": "[6]; 3.0 mg/kg p.o., 30 min after isolation", "value": 38.4, "unit": "°C"}, {"measurement": "Rectal Temp., Mean", "setting": "[6]; 3.0 mg/kg p.o., 45 min after isolation", "value": 38.2, "unit": "°C"}, {"measurement": "rectal temperature in the SIH model", "setting": "[6]; p.o., at 0.03 mg/kg, 0.01 mg/kg, 0.3 mg/kg, 1.0 mg/kg and 3.0 mg/kg", "value": "attenuation of rectal temperature"}]}
